Laboratory results taken from a melting point compilation (Tetko et al.; mined from patent text by program, amines drawn as free bases though some values may be those of a salt).

SMILES | melting point
CC(C(=O)O)c1ccc2c(c1)CCc1cccnc1O2 (stereo not drawn) | 182 to 184 °C
NCc1ccc(-c2ccccc2-c2nnn[nH]2)cc1 | > 260 °C
O=C1C(c2cc(OCc3ccccc3)ccc2O)c2ccccc2N1Cc1ccc(Cl)s1 (stereo not drawn) | 173 to 175 °C
COc1ccc(/C=C/c2c(Cl)cncc2Cl)c2cc(-c3ccncc3)oc12 | 204 to 206 °C
Cn1nnnc1-c1ccccc1S(N)(=O)=O | 176 to 179 °C
CC1(COc2cccc(Br)c2)COC(C)(C)OC1 | 67 to 70 °C
Clc1ccc(CCC(Cn2ccnc2)OCC=Cc2ccccc2)cc1 (stereo not drawn) | 115 to 116 °C
O=C(Cl)CC(c1ccccc1)(c1ccccc1)c1ccccc1 | 182 °C
CCCCN(CCCC)C(=S)C(=S)N(CCCC)CCCC | 35 to 38 °C
Cc1cc(S)n2nc(CC(=O)O)nc2n1 | 253 to 255 °C
COC(=O)c1csc(-c2ccc(F)cc2)n1 | 103 to 105 °C
O=S(=O)(NCC(O)(c1ccccc1)c1ccc(OCc2ccccc2)cc1)c1ccccc1 (stereo not drawn) | 148 to 149 °C
CC(C)c1cccc(C(C)C)c1NC(=O)N(Cc1ccc(O)cc1)CC1(c2c[nH]cn2)CCCCC1 | 185 to 188 °C
COc1ccc(C=CC(=O)c2c(OC)cc(OC)cc2OP(=O)(O)O)cc1 | 71 to 73 °C
CCOc1cc2c(cc1OCC)C(c1cccc(N)c1)=NN=C(C)C2 | 133 to 134 °C
Cc1ccc2c(c1)C1(COc3cc4c(cc31)OCCO4)C(=O)N2Cc1ncccc1C(F)(F)F (stereo not drawn) | 137 to 139 °C
Cc1ccc(-c2ccc3c(c2)C=C(C(=O)Nc2ccc(CSCc4ccccc4)cc2)CCO3)cc1 | 145 to 146 °C
CC(=O)C1=C(O)C(=C(C)Nc2ccc(S)cc2)C(=O)OC1=O | 207 to 210 °C
CCCCCCCCCCCCCCOC(=O)c1cc(N)cc(C(=O)OCCCCCCCCCCCCCC)c1 | 74 to 75 °C
CC1CN(Cc2ccccc2)Cc2cc(-c3ccccc3)n(Cc3ccccc3)c21 (stereo not drawn) | 131 °C
CNC(=S)N1CCN=C1COc1cccc(C)c1C | 100 °C
COc1ccnc2c1cc(C)n2Cc1ccccc1 | 129 to 131 °C

SMILES | melting point
Nc1ccc(CCc2ccc(OCc3ccccc3)c(OCc3ccccc3)c2)cc1 | 97 to 101 °C
CCOC(=O)c1ccc(NC(=O)c2ccc3c(c2)OCC(C)(C)CO3)cc1 | 181 to 182 °C
Fc1ccc(-c2ccn(C3CC4CCC(C3)N4)c2-c2ccncc2)cc1 (stereo not drawn) | 204 to 205 °C
CC(C(=O)O)c1cc(Cl)c([N+](=O)[O-])cc1Cl (stereo not drawn) | 143 °C
O=C(Nc1cccc2c1ncc1c(=O)[nH]cnc12)c1c(Cl)cccc1Cl | > 250 °C
C=CCCCCc1ccc(C(=O)O)cc1 | 79 to 82 °C
O=[N+]([O-])c1cnn2c1-c1ccccc1NC2C=Cc1ccccc1 (stereo not drawn) | 171 to 173 °C
COC(=O)C(=CN(C)C)c1cc(F)cc(F)c1 | 97 °C
COc1ccc(-c2sc3cc(OC)ccc3c2C#N)cc1 | 142 to 143 °C
CC(C)=CC(C#N)NC(=O)c1cc(C)nn1C (stereo not drawn) | 92.5 to 94 °C
COc1cc(OC)cc(C(=O)c2ccc(OC(F)F)c(OC(F)F)c2)c1 | 60 to 62 °C
COc1ccc(C(=O)c2c(-c3ccc(OC)cc3)sc3ccccc23)cc1 | 124 to 126 °C
Cc1ccc(C(=O)/C=C/C(=O)O)o1 | 159 to 162 °C
CC1(C)COS(=O)Oc2ccc(C#N)cc21 (stereo not drawn) | 87 to 88 °C
Cn1ccnc1Sc1ncc([N+](=O)[O-])n1C | 123 to 124 °C
O=C(Nc1cccc(C(=O)O)c1)OCc1ccccc1 | 218 to 219 °C
c1ccc(-c2nc3ccccc3n2-c2ccccc2)cc1 | 105 to 107 °C
CC(=O)OC1(c2ccccc2)C=CC(=O)C=C1 | 100 to 101 °C
COc1ccc(Br)c2c1C(=O)C(C=O)C2 (stereo not drawn) | 76 to 78 °C
CCNC(=O)c1cc(Cl)ccc1[Si](C)(C)C | 104 to 105 °C
CCCCCCCCCCCCCCCCCCCCCC(=O)OCC1CC1 | 44 °C

Next, values leading:

melting point | SMILES
167 °C | CC(C)(C)C(=O)Oc1ccc2nc(S(N)(=O)=O)sc2c1
101 to 103 °C | CC(C)CCCc1c(C(C)C)nc(C(C)C)c(CO)c1-c1ccc(F)cc1
125 to 127 °C | CN1CC[C@@H](c2c(O)cc(O)c3c(=O)cc(-c4cccnc4Cl)oc23)[C@@H]1CO
140 °C | Cc1c(C(=O)Nc2ccc(OCCO)cc2)nnn1Cc1ccc(Cl)c(Cl)c1
168 to 171 °C | CCCc1c2nc(C(=O)OCC)ccc2cc2c(=O)cc(C(=O)OCC)oc12
53 to 56 °C | CCCCNC(=O)Oc1ccc(Oc2ccccc2)cc1C(=O)OC
113 to 115 °C | CC(=O)OCc1ccc2sc(S(N)(=O)=O)cc2c1
62 to 64 °C | Cc1cccc(OCC(=S)NCCN2CCCC2)c1C
155 to 156 °C | Cn1c2cc(C(F)(F)F)ccc2c2oc(C(=O)Cl)cc21
92 to 94 °C | COC(=O)CCCCNC(=O)C(CO)NS(=O)(=O)c1ccc(Cl)cc1 (racemic)
134 to 138 °C | CC(CCCCCOCCc1ccccc1)NCC(O)c1ccc(O)c2[nH]c(=O)ccc12 (stereo not drawn)
163 to 165 °C | CCCNC(=O)C1Cc2c([nH]c3ccccc23)C(c2ccc3c(c2)OCO3)N1C(C)=O (stereo not drawn)
222 °C | CCOc1cc2cc(CO)c(CO)c(-c3ccnc(-n4nc(-c5cccnc5)c5ccccc5c4=O)c3)c2cc1OCC
188 to 193 °C | COC(=O)c1ccc(Cn2nc(OC)c3ccc(N)cc32)c(OC)c1
226 to 227 °C | O=C(O)c1cn(C2CC2)c2c(F)c(N3CCC4(C3)OCCCO4)c(F)cc2c1=O
128 °C | Cc1cccc(-c2cnn(-c3ccnc(-c4ccc(CN5CCOCC5)cc4)c3)c2)n1
114 to 116 °C | COc1ccc(-c2nc(C(F)F)oc2-c2ccc(OCCO)cc2)cc1
242 °C | CC(=O)N1CCN(Cc2sccc2S(=O)(=O)N(C)c2cccc3cc(-c4nccs4)[nH]c23)CC1
138 °C | Cn1c(Sc2ccc(C(=O)OCC(C)(C)C)c(Cl)c2)n[nH]c1=O
124 °C | CCOc1cc(OC)cc(O)c1C(=O)C=Cc1ccc(OC)cc1
226 to 230 °C | CN1CCC[C@H]1c1cnc(Cl)cc1C(O)(c1ccc(C(C)(C)C)cc1)c1ccc(C(C)(C)C)cc1
134 to 135 °C | CCCOc1ccc(S(=O)(=O)N2CCN(CCOC(C)=O)CC2)cc1-c1nc2c(CCCF)cn(CC)c2c(=O)[nH]1
89.5 °C | CN1CCN(Cc2nc3cccnc3n2CCO)CC1
224 to 226 °C | CCC(=O)Nc1cccc2c1C1(COc3cc4c(cc31)OCCO4)C(=O)N2C (stereo not drawn)
154 to 155 °C | CCC1(C)OC(c2ccc(S(N)(=O)=O)cc2)=C(c2ccc(C(C)=O)cc2)C1=O (stereo not drawn)
173 to 174 °C | CC(=O)Oc1ccc(C(=O)O)cc1I
192 to 194 °C | CCc1[nH]c(=O)n(-c2cc(C(=O)OC(C)C)c(Cl)cc2F)c(=O)c1C
65 to 67 °C | CCOC(=O)c1ccccc1Sc1ccn(C(=O)N(CC)CC)n1
135 to 137 °C | O=C(NCCN1CCCC1)c1ccc(-c2ccc3nnn(Cc4ccc5ncccc5c4)c3n2)cc1
177 to 178 °C | Cc1ccc2c(c1)C1=NN(C(=O)c3cccnc3)CC1CO2 (stereo not drawn)
